Results taken from the supplement of paper PMC8671470.
± gives the standard deviation of the averaged measurements.

Columns and labels:
HL-60 = experiment: cell viability (% survival relative to DMSO control); higher = less cytotoxic; conditions: 72 h
Procedure, shortened: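 For each screen, HL-60 cells in RPMI 1640 with 10% FBS carried either DMSO or 100 nM of one of three metabolic inhibitors while the full library was applied at five tenfold concentrations, 1–10,000 nM, in duplicate. Plates were 384-well and were kept 72 h at 37 °C, 5% CO2. Viability, measured by CellTiter-Glo, was normalised to wells with DMSO and with 10 μM proteasome inhibitor. Where area under the curve appears, it was fitted by four-parameter log-logistic models in drc and PharmacoGx.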

K-562 = experiment: cell viability (% survival relative to DMSO control, bortezomib = 0%); higher = less cytotoxic; conditions: 72 h
Procedure, shortened: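 Fifteen myeloid leukaemia cell lines (10 AML, 5 CML) were seeded at a density titrated to the linear growth range. They went into 384-well plates with compounds pre-printed at 1, 10, 100, 1000 or 10000 nM in duplicate. After 72 h at 37 °C with 5% CO2, viability was read by CellTiter-Glo luminescence. Values are percent survival, with vehicle set to 100% and a 10 µM positive control to 0%, averaged over the duplicates.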

[1] = 0.001 µM, co-treatment: AZD3965 100 nM
[2] = 0.001 µM, co-treatment: DMSO vehicle
[3] = 0.001 µM, co-treatment: GSK2194069 100 nM
[4] = 0.001 µM, co-treatment: pictilisib 100 nM
[5] = 0.01 µM, co-treatment: AZD3965 100 nM
[6] = 0.01 µM, co-treatment: DMSO vehicle
[7] = 0.01 µM, co-treatment: GSK2194069 100 nM
[8] = 0.01 µM, co-treatment: pictilisib 100 nM
[9] = 0.1 µM, co-treatment: AZD3965 100 nM
[10] = 0.1 µM, co-treatment: DMSO vehicle
[11] = 0.1 µM, co-treatment: GSK2194069 100 nM
[12] = 0.1 µM, co-treatment: pictilisib 100 nM
[13] = 1 µM, co-treatment: AZD3965 100 nM
[14] = 1 µM, co-treatment: DMSO vehicle
[15] = 1 µM, co-treatment: GSK2194069 100 nM
[16] = 1 µM, co-treatment: pictilisib 100 nM
[17] = 10 µM, co-treatment: AZD3965 100 nM
[18] = 10 µM, co-treatment: DMSO vehicle
[19] = 10 µM, co-treatment: GSK2194069 100 nM
[20] = 10 µM, co-treatment: pictilisib 100 nM

| Compound | cell viability (HL-60; [1]) | cell viability (HL-60; [2]) | cell viability (HL-60; [3]) | cell viability (HL-60; [4]) | cell viability (HL-60; [5]) | cell viability (HL-60; [6]) | cell viability (HL-60; [7]) | cell viability (HL-60; [8]) | cell viability (HL-60; [9]) | cell viability (HL-60; [10]) | cell viability (HL-60; [11]) | cell viability (HL-60; [12]) | cell viability (HL-60; [13]) | cell viability (HL-60; [14]) | cell viability (HL-60; [15]) | cell viability (HL-60; [16]) | cell viability (HL-60; [17]) | cell viability (HL-60; [18]) | cell viability (HL-60; [19]) | cell viability (HL-60; [20]) | cell viability (K-562; 1 nM) | cell viability (K-562; 10 nM) | cell viability (K-562; 100 nM) | cell viability (K-562; 1000 nM) | cell viability (K-562; 10000 nM) |
| --- | --- | --- | --- | --- | --- | --- | --- | --- | --- | --- | --- | --- | --- | --- | --- | --- | --- | --- | --- | --- | --- | --- | --- | --- | --- |
| COc1ccc(C(=O)Nc2c(Cl)cncc2Cl)cc1OC1CCCC1 [Piclamilast] | 104 ± 0.16% | 101 ± 4.7% | 101.3 ± 0.13% | 107 ± 1.1% | 104 ± 3.2% | 100.9 ± 0.19% | 100 ± 4.4% | 107 ± 3.4% | 95.5 ± 6.8% | 98.4 ± 1.4% | 98.8 ± 2% | 96.4 ± 8.2% | 105 ± 6.2% | 97.54 ± 0.89% | 97.1 ± 1.4% | 95.35 ± 0.29% | 107 ± 5.9% | 104.6 ± 0.65% | 109.3 ± 0.53% | 106 ± 11% | 90.5% | 111% | 90.7% | 108% | 83.1% |
| O=C(O)C[C@@]1(O)C[C@@H](CCCCCCc2ccc(Cl)cc2Cl)OC1=O | 104 ± 2.9% | 102 ± 1.9% | 108 ± 6.6% | 107 ± 3% | 104 ± 2.1% | 105 ± 3.1% | 108 ± 9.2% | 109.5 ± 0.28% | 100 ± 4.4% | 97.05 ± 0.83% | 95.77 ± 0.87% | 92.03 ± 0.35% | 98.7 ± 1.1% | 103 ± 1.1% | 99.5 ± 4.9% | 103 ± 1.8% | 95.4 ± 7.3% | 99.13 ± 0.47% | 93.44 ± 0.53% | 99.5 ± 1.9% | 103% | 93.6% | 105% | 102% | 96.8% |
| CC1(C)[C@@H](O[C@H]2O[C@H](C(=O)O)[C@@H](O)[C@H](O)[C@H]2O[C@@H]2O[C@H](C(=O)O)[C@@H](O)[C@H](O)[C@H]2O)CC[C@]2(C)[C@H]3C(=O)C=C4[C@@H]5C[C@@](C)(C(=O)O)CC[C@]5(C)CC[C@@]4(C)[C@]3(C)CC[C@@H]12 [Glycyrrhizin] | 103 ± 1.1% | 102 ± 4.5% | 102 ± 6.3% | 94 ± 8.3% | 102 ± 6.2% | 103 ± 1.6% | 100 ± 5.3% | 99.5 ± 4.6% | 102 ± 4% | 95.5 ± 2.6% | 105 ± 10% | 99.1 ± 9.6% | 102.6 ± 0.12% | 98.7 ± 3% | 110.4 ± 0.55% | 97.7 ± 1.7% | 105 ± 3.8% | 101 ± 3% | 104 ± 3.1% | 103 ± 2.7% | 88.7% | 87.5% | 102% | 91.6% | 83.4% |
| CN(C)c1cc(NC(=O)CNC(C)(C)C)c(O)c2c1C[C@H]1C[C@H]3[C@H](N(C)C)C(=O)C(C(N)=O)C(=O)[C@@]3(O)C(=O)C1C2=O (stereo not given in full) [Tigecycline] | 103 ± 5.2% | 102 ± 6.9% | 101.8 ± 0.14% | 97.3 ± 1.4% | 98.51 ± 0.53% | 102.7 ± 0.82% | 96.3 ± 14% | 100 ± 1.1% | 106 ± 2.4% | 105 ± 2.6% | 101 ± 6% | 103.3 ± 0.24% | 103 ± 5% | 101.5 ± 0.45% | 96.7 ± 1.9% | 101.8 ± 0.58% | 101 ± 3.3% | 105 ± 3.9% | 103 ± 11% | 102 ± 11% | 102% | 93.4% | 92.1% | 90.6% | 83.4% |
| O=C(O)c1cc(Cl)cc(Cl)c1O [3,5-Dichlorosalicylic Acid] | 107 ± 1.5% | 104 ± 1.9% | 97.6 ± 4.4% | 80.1 ± 5.9% | 98.5 ± 2.3% | 105 ± 2.4% | 97 ± 9.9% | 93.1 ± 1.8% | 99.4 ± 1.1% | 101 ± 2.7% | 95.56 ± 0.17% | 100 ± 1.9% | 101 ± 4.1% | 106 ± 6.3% | 97.5 ± 9% | 107 ± 2.9% | 101 ± 4.9% | 101 ± 5.5% | 102 ± 7.3% | 103 ± 8.5% | 107% | 125% | 104% | 111% | 90.9% |
| Cc1ccccc1C(C(=O)NC1CCCCC1)N(C(=O)Cn1ccnc1C)c1cccc(F)c1 (stereo not given) [AGI-5198] | 95.1 ± 5.2% | 98.5 ± 2.9% | 103 ± 7.5% | 98.4 ± 13% | 98.5 ± 3.8% | 106 ± 3.2% | 101 ± 5.5% | 114 ± 16% | 93.2 ± 6.7% | 104 ± 7.8% | 88.5 ± 15% | 103 ± 3.8% | 91.8 ± 9.9% | 99.4 ± 1.1% | 101 ± 1.5% | 102 ± 0.28% | 100.5 ± 0.15% | 95.7 ± 5.1% | 106 ± 5.5% | 104 ± 26% | 98.5% | 101% | 103% | 96.5% | 104% |
| CCCCCCCCCCCC(=O)c1c(O)c(C(=O)CCCCCCCCCCC)c(O)c(C2CC(c3ccc(O)cc3)Oc3cc(O)ccc32)c1O (stereo not given) | 95.8 ± 4.7% | 99.8 ± 5.4% | 101 ± 3.5% | 107 ± 18% | 104 ± 2.3% | 98.29 ± 0.34% | 96.5 ± 1.7% | 107 ± 1.4% | 97.5 ± 3.7% | 99.11 ± 0.51% | 101 ± 3.1% | 99.9 ± 7.8% | 107 ± 11% | 102.2 ± 0.57% | 104 ± 11% | 101 ± 3.3% | 101 ± 3.6% | 104.7 ± 0.063% | 100 ± 3.4% | 95.4 ± 10% | 97.9% | 91.5% | 99.4% | 117% | 108% |
| NCCCC(N)(C(=O)O)C(F)F (stereo not given) [Difluoromethylornithine] | 105 ± 3.3% | 103 ± 2.6% | 101 ± 7.7% | 100 ± 9.8% | 100.5 ± 0.84% | 97.01 ± 0.84% | 98.8 ± 4.4% | 92.3 ± 4% | 100 ± 0.81% | 104 ± 6% | 104 ± 1.5% | 97.2 ± 1.6% | 93.5 ± 2.9% | 101 ± 1.8% | 95.6 ± 6.4% | 92.6 ± 4.1% | 96.8 ± 4% | 103 ± 1.9% | 101 ± 4.5% | 94.6 ± 2% | 99.3% | 104% | 97% | 107% | 126% |
| O=C(NCCCCCCNC(=O)ONC1=CCCCC1)ONC1=CCCCC1 | 99.5 ± 1.2% | 97 ± 1.2% | 99.1 ± 7.2% | 105 ± 11% | 99 ± 1.3% | 99.2 ± 2.3% | 101 ± 3% | 102 ± 1.8% | 99.3 ± 1% | 96.8 ± 1.2% | 70.1 ± 47% | 104 ± 4.3% | 100.9 ± 0.23% | 102 ± 1.3% | 87.3 ± 32% | 95 ± 25% | 98.9 ± 0.37% | 97.3 ± 2.2% | 105 ± 10% | 86.2 ± 13% | 97.9% | 120% | 116% | 101% | 89.5% |
